This passage reports IC50 and Activity results from ChEMBL document CHEMBL4052760, “Synthesis, antioxidant and antiproliferative activities of 1,3,4-thiadiazoles derived from phenolic acids” (Bioorg Med Chem Lett, 2017).

Assay [1] is described as follows: Antioxidant activity assessed as DPPH radical scavenging activity after 30 mins in absence of light. The format is functional. Background: Loss of DPPH colour is used to gauge radical scavenging.
In assay [2] the test system is HeLa. Kind of assay: Cytotoxicity against human HeLa cells after 72 hrs by MTT assay. The format is functional, cell-based. On the technique in general: Tetrazolium assays rely on reduction of a dye to a coloured formazan, in cell work by metabolically active cells.
For assay [3], the system named is HL-60. Kind of assay: Cytotoxicity against human HL60 cells after 72 hrs by MTT assay. The format is functional, cell-based. To be noted: HL-60, 72 h.
The test system of assay [4] is A549. Kind of assay: Cytotoxicity against human A549 cells after 72 hrs by MTT assay. The class given is functional, cell-based. The settings on record: A549, 72 h.
In assay [5] the test system is MRC5. Kind of assay: Cytotoxicity against human MRC5 cells after 72 hrs by MTT assay. The class given is cell-based. To be noted: MRC5, 72 h.
For assay [6], the system named is HL-60. Kind of assay: Downregulation of MMP9 in human HL60 cells assessed as decrease in mRNA expression levels at 6.5 uM after 24 hrs by RT-PCR analysis. The class given is functional, cell-based.
The test system of assay [7] is HL-60. Kind of assay: Cell cycle arrest in human HL60 cells assessed as accumulation at subG1 phase at IC50 after 24 hrs by FACS analysis. The class given is functional, cell-based. (In flow cytometry, cells or beads pass a laser one at a time.)
Assay [8] has as its system HL-60. Kind of assay: Cytoprotective activity against H2O2-induced oxidative stress in human HL60 cells assessed as decrease in level of reactive oxygen species pretreated for 24 hrs at 6 uM followed by H2O2-stimulation for 30 mins by DCFH-DA staining-based FACS analysis. The class given is functional, cell-based.
Assay [9] relates to HL-60. Kind of assay: Cell cycle arrest in human HL60 cells assessed as accumulation at subG1 phase at 2 times IC50 after 24 hrs by FACS analysis. The format is functional, cell-based.
For assay [10], the system named is HL-60. Kind of assay: Induction of apoptosis in human HL60 cells assessed as chromatin condensation at 2 times IC50 measured after 24 hrs by acridine orange/ethidium bromide staining-based fluorescence microscopic method. The class given is functional, cell-based.
Assay [11] relates to HL-60. Kind of assay: Induction of apoptosis in human HL60 cells assessed as secondary necrosis at 2 times IC50 measured after 24 hrs by acridine orange/ethidium bromide staining-based fluorescence microscopic method. The format is functional, cell-based.
In assay [12] the test system is HL-60. Kind of assay: Induction of apoptosis in human HL60 cells assessed as nuclear fragmentation at 2 times IC50 measured after 24 hrs by acridine orange/ethidium bromide staining-based fluorescence microscopic method. The class given is functional, cell-based.
In assay [13] the test system is HL-60. Kind of assay: Induction of cell death in human HL60 cells assessed as decrease in percentage of cells in subG1 phase at 2 times IC50 pretreated for 72 hrs followed by caspase-3 inhibitor Z-DEVD-FMK addition measured after 24 hrs by propidium iodide-staining based FACS analysis. The class given is functional.
Assay [14] deals with HL-60. Kind of assay: Induction of cell death in human HL60 cells assessed as decrease in percentage of cells in subG1 phase at 2 times IC50 pretreated for 72 hrs followed by caspase-8 inhibitor Z-IETD-FMK addition measured after 24 hrs by propidium iodide-staining based FACS analysis. The format is functional.
Assay [15] deals with HL-60. Kind of assay: Induction of cell death in human HL60 cells assessed as decrease in percentage of cells in subG1 phase at 2 times IC50 pretreated for 72 hrs followed by caspase-9 inhibitor Z-LEHD-FMK addition measured after 24 hrs by propidium iodide-staining based FACS analysis. The format is functional.
Assay [16] concerns EA.hy 926. Kind of assay: Antiangiogenic activity against human EAhy926 cells assessed as inhibition of capillary-like tube formation at 30 uM measured after 20 hrs by inverted phase contrast microscopic analysis. The format is functional, cell-based.
Assay [17] concerns HL-60. Kind of assay: Downregulation of MMP2 in human HL60 cells assessed as decrease in mRNA expression levels at 6.5 uM after 24 hrs by RT-PCR analysis. The format is functional, cell-based.
Assay [18] has as its system HL-60. Kind of assay: Downregulation of MMP2 in human HL60 cells assessed as decrease in mRNA expression levels at 6 uM after 24 hrs by RT-PCR analysis. The format is functional, cell-based.
Assay [19] relates to HL-60. Kind of assay: Downregulation of MMP9 in human HL60 cells assessed as decrease in mRNA expression levels at 6 uM after 24 hrs by RT-PCR analysis. The format is functional, cell-based.
In assay [20] the test system is HL-60. Kind of assay: Downregulation of VEGFA in human HL60 cells assessed as decrease in mRNA expression levels at 6.5 uM after 24 hrs by RT-PCR analysis. The format is functional, cell-based.
The test system of assay [21] is HL-60. Kind of assay: Downregulation of VEGFA in human HL60 cells assessed as decrease in mRNA expression levels at 6 uM after 24 hrs by RT-PCR analysis. The format is functional, cell-based.
Assay [22] deals with EA.hy 926. Kind of assay: Antiangiogenic activity against human EAhy926 cells assessed as inhibition of capillary-like tube formation at 50 uM measured after 20 hrs by inverted phase contrast microscopic analysis. The class given is functional, cell-based.
Assay [23] has as its system HL-60. Kind of assay: Cytoprotective activity against H2O2-induced oxidative stress in human HL60 cells assessed as decrease in level of reactive oxygen species pretreated for 24 hrs at 6.5 uM followed by H2O2-stimulation for 30 mins by DCFH-DA staining-based FACS analysis. The format is functional, cell-based.
Assay [24] relates to HL-60. Kind of assay: Cytoprotective activity against H2O2-induced oxidative stress in human HL60 cells assessed as decrease in level of reactive oxygen species pretreated for 24 hrs at 6.25 uM followed by H2O2-stimulation for 30 mins by DCFH-DA staining-based FACS analysis. The format is functional, cell-based.

The IC50 is the midpoint of a concentration-inhibition curve.

Active and inactive are the calls of the source. The calls are words filed in the database; no cut-off is given here.

On to `CC(Cc1ccc(O)c(O)c1)C(C)Cc1ccc(O)c(O)c1` (stereo not given) [NORDIHYDROGUAIARETIC ACID], for which the IC50 in [1] worked out at 20.8 µM.
`Cc1ccc(C(=O)Nc2nnc(-c3ccc(O)c(O)c3)s2)cc1`: the IC50 in assay [1] amounted to 34 µM; in [2], 67.1 µM; in assay [3] it was 10.5 µM; in assay [4], 11.8 µM; in assay [5] it was 27.1 µM.
Consider `O=C(Nc1nnc(-c2cccc(O)c2O)s1)C12CC3CC(CC(C3)C1)C2`, for which the result in [6], in [15] and in [19] was inactive. Also, the IC50 in assay [1] was determined as 14.2 µM; in assay [2], 21.4 µM; in [3], 7.3 µM; in [4], 12.8 µM; in assay [5] it was 27.7 µM. Moreover, the result in assay [7], in assay [8], in assay [9], in [10], in assay [11] and in assay [12] was Active. The outcome in assay [13], in assay [14], in assay [16], in assay [17], in assay [18] and in [20] was Active. The outcome in assay [21] was Active.
For the compound `Cc1ccc(C(=O)Nc2nnc(-c3cccc(O)c3O)s2)cc1`, the result in [6], in assay [15] and in assay [19] was inactive. Also, the IC50 in assay [1] was determined as 27.1 µM; in assay [2] it was 13.4 µM; in assay [3], 10.6 µM; in [4], 11.3 µM; in assay [5] it was 33.2 µM. Besides, the result in [10], in [11], in assay [12], in assay [13], in [14] and in assay [22] was Active. For the same compound, the result in [17], in assay [18], in [20] and in assay [21] was Active.
On to `O=C(Nc1nnc(-c2ccc(O)c(O)c2)s1)C12CC3CC(CC(C3)C1)C2`, for which the result in assay [6], in assay [15] and in [19] was inactive. For the same compound, the concentration for half-maximal inhibition (IC50) in assay [1] was found to be 17.9 µM; in assay [2] it was 16.1 µM; in assay [3], 7.4 µM; in [4] it was 13 µM; in [5], 20.1 µM. For the same compound, the outcome in assay [23], in assay [10], in [11], in [12], in [13] and in assay [14] was Active. The result in assay [16], in [17], in assay [18], in assay [20] and in [21] was Active.
For the compound `O=C(Nc1nnc(-c2cccc(O)c2O)s1)c1ccc(Cl)cc1`, the outcome in [6], in assay [15] and in assay [19] was inactive. The half-inhibitory concentration (IC50) came to 30.2 µM in [1]; 13 µM in assay [2]; 9.6 µM in assay [3]; 9.5 µM in [4]; 18.7 µM in assay [5]. Moreover, the outcome in assay [10], in assay [11], in [12], in assay [13], in [14] and in [22] was Active. Besides, the result in [17], in [18], in [20] and in [21] was Active.
For the compound `O=C(Nc1nnc(-c2cccc(O)c2O)s1)c1ccccc1`, the IC50 in [1] was 22.3 µM; in assay [2], 21.8 µM; in assay [3], 20.7 µM; in [4], 12.3 µM; in [5] it was 23.2 µM.
As to `O=C(COc1ccccc1)Nc1nnc(-c2cccc(O)c2O)s1`, the IC50 in assay [1] is 16.6 µM; in [2], 117 µM; in assay [3], 11.2 µM; in assay [4], 10.5 µM; in assay [5], 33.9 µM. The outcome in assay [24] was Active.
Regarding `O=C(Cc1ccccc1)Nc1nnc(-c2ccc(O)c(O)c2)s1`, the half-maximal inhibitory concentration (IC50) was found to be 21.3 µM in assay [1]; 88.6 µM in assay [2]; 12 µM in assay [3]; 15.4 µM in [4]; 30.7 µM in assay [5].
Consider `O=C(COc1ccccc1)Nc1nnc(-c2ccc(O)c(O)c2)s1`, for which the half-maximal inhibitory concentration (IC50) in [1] stood at 36.1 µM; in [2], 51.3 µM; in assay [3], 17.4 µM; in assay [4], 21.2 µM; in assay [5] it was 30.9 µM.
In the case of `O=C1O[C@H]([C@@H](O)CO)C(O)=C1O` [ASCORBIC ACID], the half-inhibitory concentration (IC50) in assay [1] was 38 µM.
With `O=C(Cc1ccccc1)Nc1nnc(-c2cccc(O)c2O)s1`, the IC50 was 20.9 µM in [1]; 120 µM in assay [2]; 13.9 µM in assay [3]; 11.8 µM in assay [4]; 45.3 µM in [5].
For `CC(=O)Nc1nnc(-c2cccc(O)c2O)s1`, in that order: 111 µM, 177 µM, 49 µM, 200 µM and 156 µM.
For the compound `CC(=O)Nc1nnc(-c2ccc(O)c(O)c2)s1`, the 50% inhibitory concentration (IC50) in assay [1] stood at 23.4 µM; in [2], 125 µM; in [3], 42.5 µM; in assay [4] it was 133 µM; in [5], 58.6 µM.
For the compound `O=C(Nc1nnc(-c2ccc(O)c(O)c2)s1)c1ccc(Cl)cc1`, the half-maximal inhibitory concentration (IC50) in assay [1] turned out to be 53 µM; in assay [2] it was 47.3 µM; in assay [3] it was 14.7 µM; in assay [4] it was 14.6 µM; in [5] it was 30.6 µM.
Consider `O=C(Nc1nnc(-c2cccc(O)c2O)s1)C1CCCCC1`, for which the IC50 in assay [1] was 19.9 µM; in assay [2], 91.6 µM; in [3], 7.9 µM; in assay [4], 11 µM; in [5], 70.3 µM. Besides, the result in [24] was Active.
Turning to `O=C(Nc1nnc(-c2ccc(O)c(O)c2)s1)C1CCCCC1`, the IC50 in assay [1] came out at 37.3 µM; in assay [2], 34.5 µM; in assay [3], 8.8 µM; in [4], 16.3 µM; in [5], 24 µM.
Regarding `O=C(Nc1nnc(-c2ccc(O)c(O)c2)s1)c1ccccc1`, the half-inhibitory concentration (IC50) was 23.4 µM in assay [1]; 23.3 µM in assay [2]; 17.6 µM in assay [3]; 13 µM in assay [4]; 27.4 µM in assay [5].
